Laboratory results published in patent US20260226101A1, “PEPTIDE WITH ANTI-INFLAMMATORY AND ANTI-MICROBIAL ACTIVITY” (priority 2023, published 2026).
Ends that are not written are not given here.

Columns and labels:
[1] = test system: LPS-stimulated RAW 264.7 cells; test: ELISA of cytokines in supernatants of LPS-stimulated RAW 264.7 cells; assay type: cell-based, murine
Method: Cells were sub-cultured by scraping when plates reached 70-80% confluence with a 1:5 ratio in fresh medium. RAW 264.7 cells were plated at density of 1×10^5 cells and allowed for attachment. The growth medium was then replaced with fresh medium without FBS and incubated for 6 h then cells were pre-treated with different concentrations of synthetic peptides: IS 111 (3.12, 6.25, 12.5, 25, 50 and 100 μg/mL) or dexamethasone (500 μg/mL) as a positive control for 1 h followed by stimulation of LPS (1 μg/mL) and then further incubated for 18 h and were allowed to adhere. After 18 h of incubation, plates were centrifuged for 6 min at 400×g and the supernatants and cell lysates were collected and kept frozen at −80° C. until used for further analysis.
At the end of the treatment period, cells were harvested in RNA isoplus reagent for subsequent cellular RNA extraction, for RTqPCR. The pro & anti-inflammatory cytokine production in supernatants was estimated by using ELISA, RTqPCR and western blotting in cell lysates. The experiment was carried out in triplicate. LPS and Dexamethasone were used as the controls.
The following treatments were applied for the anti-inflammatory test: • (1) The negative control: RAW 264.7 cells without being induced by lipopolysaccharide; no drug treatment. • (2) The positive control: RAW264.7 cells that were induced by […] of lipopolysaccharide (LPS group). • (3) The mixture of Synthetic peptides: IS 111 (3.12, 6.25, 12.5, 25, 50 and 100 μg/ml), LPS (1 μg/mL) and RAW 264.7 cells; and • (4) The standard positive control: The mixture of dexamethasone (500 μg/mL), LPS (1 μg/mL), and RAW 264.7 cells.
The levels of IL-6, TNF-α, IL-1β, and IL-10 in the supernatants of RAW 264.7 cell cultures were determined using an ELISA kit, according to the manufacturer's instructions (R&D Systems).

[2] = test system: Staphylococcus aureus ATCC 6538; test: Time-kill assay; assay type: cell-based; settings: S. aureus
Method: The survival of bacteria, time kill efficacy assay of IS 111 was further evaluated for activity against bacterial strain mentioned above according to CLSI reference method, with slightly modification. MICs were determined by broth microdilution assay as described above. […] Test tubes of MHB without test compound IS 111 were used as vehicle controls. Overnight cultures of the bacterial strains at cell densities of approximately 1×10^8 CFU/ml were used to inoculate both test and control tubes. The standard tube dilution method was opted to evaluate the time-kill efficacy of bacteria. Bacterial inoculum (1 mL) was diluted by adding 9 mL sterile saline solution and serially diluted up to 10^−3. […] 100 μL incubated suspension was transferred on the agar plates and spread through the spreader. Colony counts were performed after 24 h incubation at 37° C. Plates with 10-300 colonies were used for these counts, and the kill rate was determined by plotting log 10 viable counts (CFU/ml) against time. Bactericidal activity was defined as a ≥3 log 10 decreases in CFU/ml of the initial microbial population, while bacteriostatic activity was defined was defined as a <3 log 10 decrease in CFU/ml. The assay was performed in triplicate [Olufunmiso O Olajuyigbe et al., 2015; Sutthiwan Thammawat et al., 2017]
The time-kill kinetics antibacterial study of the Peptide IS 111 was carried out to assess the killing rate of the compound within a given contact time. The survival of bacteria, time kill efficacy assay of IS 111 was further evaluated for activity against Escherichia coli ATCC 8739 and Staphylococcus aureus ATCC 6538, Pseudomonas aeruginosa ATCC 9027 and Klebsiella pneumoniae ATCC 700603 according to CLSI reference method, with slightly modification. MICs were determined by broth microdilution assay as described above. […] 10. Test tubes of MHB without test compound Peptide IS 111 were used as vehicle controls. Overnight cultures of the bacterial strains at cell densities of approximately 1×10^6 CFU/ml were used to inoculate both test and control tubes.
After each interval, ten-fold dilutions were prepared with normal saline, and 100 μL incubated suspension was transferred on the agar plates and spread through the spreader. Colony counts were performed after 24 h incubation at 37° C. Plates with 10-300 colonies were used for these counts, and the kill rate was determined by plotting log 10 viable counts (CFU/ml) against time. Bactericidal activity was defined as a ≥3 log 10 decrease in CFU/ml of the initial microbial population, while bacteriostatic activity was defined as a <3 log 10 decrease in CFU/ml. The assay was performed in triplicate. The proportion of cells surviving at 60 min was calculated, as was the mean and standard deviation. Proportions of surviving cells were compared using Student's 2-tailed t-test, assuming unequal variance and differences were considered significant where p≤0.05.

[3] = test system: LPS-stimulated peritoneal macrophages; test: Cytokine ELISA in LPS-stimulated peritoneal macrophages; assay type: cell-based, BALB/c mice
Method: BALB/c mice (6-8 wk old) of either sex was injected IP with 1 ml of 4% sterile thioglycollate broth in PBS. After 4 d, mice were sacrificed, and peritoneal macrophages were harvested as described below [Meurer S K, 2016] and this model is well known as “Thioglycollate-induced peritonitis model”. […] After 4 days, mice were then euthanized, and the peritoneal macrophages were harvested by lavaging the peritoneal cavity with 5-6 mL of harvest medium (EDTA 5 mM+PBS). Isolated peritoneal exudate cells were washed twice with RPMI and centrifuged at 1000 rpm/400×g for 8-10 min at 4° C. […] The plates were then washed with warm PBS to remove non-adherent cells. […] After 24 h, culture supernatants were collected for estimation of cytokines by ELIZA and RTqPCR, whereas cells were harvested for western blotting. The procedure of ELISA, RTqPCR and other conditions are same as in the section. [Min Jee Kim et al., 2014].

[4] = 3.12-100 μg/mL pretreatment, LPS 18 h, vs LPS group

FAKKFAK [IS 111, Phe-Ala-Lys-Lys-Phe-Ala-Lys]
IL-1β production (ELISA) [1, 4]: inhibited
IL-6 levels (ELISA) [1, 4]: reduced
IL-10 levels (ELISA) [1, 4]: significantly increased
TNF-alpha levels (ELISA) [1, 4]: significantly reduced
Concentration with better inhibition of TNF-α, IL-1β and IL-6 than 100 μg/mL ([1]; LPS induced RAW 264.7): 25 µg/mL
NO production ([1]; LPS-stimulated RAW cells, summary table): ↓Cytotoxicity; ↓ NO production; ↓
Viable count ([2]; 0.5 × MIC, 0 h): 5.1 ± 0.65 1 × 10^5 CFU/ml
Viable count ([2]; 0.5 × MIC, 1 h): 4.6 ± 0.48 1 × 10^5 CFU/ml
Viable count ([2]; 0.5 × MIC, 2 h): 3.8 ± 0.68 1 × 10^5 CFU/ml
Viable count ([2]; 0.5 × MIC, 3 h): 3.2 ± 0.58 1 × 10^5 CFU/ml
Viable count ([2]; 0.5 × MIC, 4 h): 2.5 ± 0.58 1 × 10^5 CFU/ml
Viable count ([2]; 0.5 × MIC, 5 h): 2.1 ± 0.43 1 × 10^5 CFU/ml
Viable count ([2]; 0.5 × MIC, 12 h): 1.8 ± 0.43 1 × 10^5 CFU/ml
Reduction in viability ([2]; 0.5×MIC (1.56 μg/ml), 24 h): 2 log 10 CFU/ml
Type of activity (bacteriostatic or bactericidal) ([2]; 0.5×MIC, 24 h): bacteriostatic
Viable count ([2]; 0.5×MIC, 24 h): 1.2 ± 0.23 1 × 10^5 CFU/ml
Viable count ([2]; 1 × MIC, 0 h): 5.3 ± 0.10 1 × 10^5 CFU/ml
Viable count ([2]; 1 × MIC, 1 h): 3.7 ± 0.43 1 × 10^5 CFU/ml
Viable count ([2]; 1 × MIC, 2 h): 1.6 ± 0.48 1 × 10^5 CFU/ml
Viable count ([2]; 1 × MIC, 3 h): 0.7 ± 0.15 1 × 10^5 CFU/ml
Viable count ([2]; 1 × MIC, 4 h): 0.3 ± 0.15 1 × 10^5 CFU/ml
Viable count ([2]; 1 × MIC, 5 h): 0.2 ± 0.00 1 × 10^5 CFU/ml
Viable count ([2]; 1 × MIC, 12 h): 0 1 × 10^5 CFU/ml
Viable count ([2]; 1 × MIC, 24 h): 0 1 × 10^5 CFU/ml
Time to bacteriostatic activity ([2]; 1×MIC (3.13 μg/ml)): ≤ 12 h
Viable count ([2]; 5 × MIC, 0 h): 5.6 ± 0.30 1 × 10^5 CFU/ml
Viable count ([2]; 5 × MIC, 1 h): 0.8 ± 0.13 1 × 10^5 CFU/ml
Viable count ([2]; 5 × MIC, 2 h): 0.4 ± 0.08 1 × 10^5 CFU/ml
Viable count ([2]; 5 × MIC, 3 h): 0 1 × 10^5 CFU/ml
Viable count ([2]; 5 × MIC, 4 h): 0 1 × 10^5 CFU/ml
Viable count ([2]; 5 × MIC, 5 h): 0 1 × 10^5 CFU/ml
Viable count ([2]; 5 × MIC, 12 h): 0 1 × 10^5 CFU/ml
Viable count ([2]; 5 × MIC, 24 h): 0 1 × 10^5 CFU/ml
Time to bacteriostatic activity ([2]; 5×MIC (15.6 μg/ml)): ≤ 2 h
Concentration of maximum inhibition for all cytokines ([3]; IL-1β, IL-6, IL-12p70, TNF-α, text prints RAW 264.7 cells): 100 µM
IL-10 levels ([3]; summary table): TNF-α and ↑ IL-10 levels.
